Measurements reported in PubChem BioAssay (NCI).
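Growth conditions: 96-well plates. Treatment: test compound, 48 hours, 5 concentrations. Analysis: linear interpolation between bracketing concentrations; unreached endpoints set to highest concentration. Here, GI50 denotes the concentration required for 50% inhibition of growth. TGI is the concentration that stops growth completely.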

Legend:
Test in all cases: DTP human tumour cell line panel, 48 h
[1] = test system: U251 CNS
[2] = test system: A498 renal
[3] = test system: NCI-H226 lung
[4] = test system: HL-60(TB) leukemia
[5] = test system: HOP-92 NSCLC
[6] = test system: PC-3 prostate
[7] = test system: SF-268 CNS
[8] = test system: COLO 205 colon
[9] = test system: NCI-H460 lung
[10] = test system: MOLT-4 leukemia
[11] = test system: SK-OV-3 ovarian
[12] = test system: CAKI-1 renal
[13] = test system: HCC-2998 colon
[14] = test system: RXF 393 renal
[15] = test system: OVCAR-5 ovarian
[16] = test system: HCT-116 colon
[17] = test system: 786-0 renal
[18] = test system: HS 578T breast
[19] = test system: SK-MEL-2 melanoma
[20] = test system: SNB-75 CNS
[21] = test system: T-47D breast
[22] = test system: ACHN renal
[23] = test system: K-562 leukemia
[24] = test system: NCI-H522 lung
[25] = test system: BT-549 breast
[26] = test system: SK-MEL-28 melanoma
[27] = test system: EKVX NSCLC
[28] = test system: SF-295 CNS
[29] = test system: UACC-257 melanoma
[30] = test system: MDA-MB-231 breast
[31] = test system: HCT-15 colon
[32] = test system: SK-MEL-5 melanoma
[33] = test system: DU-145 prostate
[34] = test system: M14 melanoma
[35] = test system: OVCAR-4 ovarian
[36] = test system: OVCAR-3 ovarian
[37] = test system: SNB-19 CNS
[38] = test system: HT29 colon
[39] = test system: LOX IMVI melanoma
[40] = test system: A549 NSCLC
[41] = test system: SN12C renal
[42] = test system: OVCAR-8 ovarian
[43] = test system: MDA-MB-435
[44] = test system: MCF7 breast
[45] = test system: UO-31 renal
[46] = test system: TK-10 renal
[47] = test system: MALME-3M melanoma
[48] = test system: UACC-62 melanoma
[49] = test system: NCI-H23 lung
[50] = test system: NCI/ADR-RES ovarian
[51] = test system: IGROV1 ovarian
[52] = test system: SF-539 CNS
[53] = test system: SW-620 colon
[54] = test system: CCRF-CEM leukemia
[55] = test system: KM12 colon
[56] = test system: RPMI-8226 leukemia
[57] = test system: HOP-62 NSCLC

## Cc1cc(NC(=O)c2cnc(N3CCN(CCOCCOCCOCCOCCC(=O)N[C@H](C(=O)N4C[C@H](O)C[C@H]4C(=O)N[C@@H](C)c4ccc(-c5scnc5C)cc4)C(C)(C)C)CC3)cn2)c2ncccc2c1
[1]
  GI50: 2.74 µM
  TGI: 7.92 µM
[2]
  GI50: 5.06 µM
  TGI: 29 µM
[3]
  GI50: 28.7 µM
  TGI: > 100 µM
[4]
  GI50: 2.3 µM
  TGI: 5.71 µM
[5]
  GI50: 2.3 µM
  TGI: 9.37 µM
[6]
  GI50: 2.85 µM
  TGI: 10.4 µM
[7]
  GI50: 3.02 µM
  TGI: 18.3 µM
[8]
  GI50: 5.11 µM
  TGI: > 100 µM
[9]
  GI50: 3.37 µM
  TGI: 11 µM
[10]
  GI50: 3.12 µM
  TGI: 9.67 µM
[11]
  GI50: 8.5 µM
  TGI: > 100 µM
[12]
  GI50: 9.33 µM
  TGI: > 100 µM
[13]
  GI50: 1.75 µM
  TGI: 3.25 µM
[14]
  GI50: 1.73 µM
  TGI: 3.71 µM
[15]
  GI50: 14.9 µM
  TGI: 50.8 µM
[16]
  GI50: 1.79 µM
  TGI: 3.38 µM
[17]
  GI50: 4.61 µM
  TGI: > 100 µM
[18]
  GI50: 2.59 µM
  TGI: 9.17 µM
[19]
  GI50: 3.17 µM
  TGI: 11 µM
[20]
  GI50: 2.1 µM
  TGI: 15 µM
[21]
  GI50: 3.03 µM
  TGI: 17.9 µM
[22]
  GI50: 12 µM
  TGI: > 100 µM
[23]
  GI50: 3.1 µM
  TGI: > 100 µM
[24]
  GI50: 1.96 µM
  TGI: 6.16 µM
[25]
  GI50: 1.83 µM
  TGI: 3.69 µM
[26]
  GI50: 2.54 µM
  TGI: 6.7 µM
[27]
  GI50: 4.9 µM
  TGI: > 100 µM
[28]
  GI50: 2.23 µM
  TGI: 6.31 µM
[29]
  GI50: 2.81 µM
  TGI: 7.97 µM
[30]
  GI50: 1.98 µM
  TGI: 3.98 µM
[31]
  GI50: 6.39 µM
  TGI: > 100 µM
[32]
  GI50: 2.36 µM
  TGI: 5.72 µM
[33]
  GI50: 6.16 µM
  TGI: > 100 µM
[34]
  GI50: 2.19 µM
  TGI: 4.94 µM
[35]
  GI50: 4.49 µM
  TGI: 25 µM
[36]
  GI50: 2.13 µM
  TGI: 4.45 µM
[37]
  GI50: 3.59 µM
  TGI: 14.7 µM
[38]
  GI50: 2.54 µM
  TGI: 7.63 µM
[39]
  GI50: 1.84 µM
  TGI: 3.39 µM
[40]
  GI50: 6.19 µM
  TGI: > 100 µM
[41]
  GI50: 2.52 µM
  TGI: 7.64 µM
[42]
  GI50: 3.38 µM
  TGI: > 100 µM
[43]
  GI50: 2.25 µM
  TGI: 5.38 µM
[44]
  GI50: 3.14 µM
  TGI: > 100 µM
[45]
  GI50: 12.7 µM
  TGI: > 100 µM
[46]
  GI50: 10.7 µM
  TGI: 53.4 µM
[47]
  GI50: 1.76 µM
  TGI: 3.68 µM
[48]
  GI50: 1.71 µM
  TGI: 3.36 µM
[49]
  GI50: 3.57 µM
  TGI: 15.8 µM
[50]
  GI50: > 100 µM
  TGI: > 100 µM
[51]
  GI50: 2.39 µM
  TGI: 8.17 µM
[52]
  GI50: 2.12 µM
  TGI: 4.68 µM
[53]
  GI50: 2.38 µM
  TGI: 5.65 µM
[54]
  GI50: 3.37 µM
  TGI: > 100 µM

## CN1CCN(c2cc3nc4ccccc4n(-c4ccc(Cl)cc4)c-3cc2=N)CC1
[1]
  GI50: 18.9 µM
  TGI: 49.7 µM
[2]
  GI50: > 100 µM
  TGI: > 100 µM
[3]
  GI50: 60.7 µM
  TGI: > 100 µM
[4]
  TGI: 4.35 µM
[5]
  GI50: 28.7 µM
  TGI: 94.8 µM
[6]
  GI50: 16.1 µM
  TGI: 86.8 µM
[7]
  GI50: 32.1 µM
  TGI: > 100 µM
[8]
  GI50: > 100 µM
  TGI: > 100 µM
[9]
  GI50: 39.6 µM
  TGI: > 100 µM
[10]
  GI50: 12.8 µM
  TGI: 32 µM
[11]
  GI50: > 100 µM
  TGI: > 100 µM
[12]
  GI50: 24.6 µM
  TGI: 82 µM
[13]
  GI50: 23.1 µM
  TGI: 54.9 µM
[14]
  GI50: 20.3 µM
  TGI: 99.8 µM
[15]
  GI50: 24.1 µM
  TGI: 60.8 µM
[16]
  GI50: 22.2 µM
  TGI: 57.2 µM
[17]
  GI50: 31.4 µM
  TGI: > 100 µM
[18]
  GI50: 20.7 µM
  TGI: 95.7 µM
[55]
  GI50: 16.6 µM
  TGI: 43.8 µM
[19]
  GI50: 33.7 µM
  TGI: > 100 µM
[21]
  GI50: > 100 µM
  TGI: > 100 µM
[22]
  GI50: 23.4 µM
  TGI: > 100 µM
[23]
  GI50: 0.356 µM
  TGI: 23.5 µM
[24]
  GI50: 21.5 µM
  TGI: 52.6 µM
[25]
  GI50: 41.6 µM
  TGI: > 100 µM
[27]
  GI50: 30 µM
  TGI: > 100 µM
[28]
  GI50: 23.4 µM
  TGI: 59.5 µM
[29]
  GI50: 19.2 µM
  TGI: 39.2 µM
[30]
  GI50: 10.6 µM
  TGI: 49.9 µM
[56]
  GI50: 12.1 µM
  TGI: 35.1 µM
[57]
  GI50: 23.3 µM
  TGI: 65 µM
[31]
  GI50: 23.4 µM
  TGI: 81.3 µM
[32]
  GI50: 16.3 µM
  TGI: 32.7 µM
[33]
  GI50: 37.8 µM
  TGI: > 100 µM
[34]
  GI50: 21.4 µM
  TGI: 43.8 µM
[36]
  GI50: 2.78 µM
  TGI: 16.7 µM
[37]
  GI50: > 100 µM
  TGI: > 100 µM
[38]
  GI50: > 100 µM
  TGI: > 100 µM
[39]
  GI50: 15.7 µM
  TGI: 36.6 µM
[40]
  GI50: 24.1 µM
  TGI: 60.8 µM
[41]
  GI50: 19.4 µM
  TGI: 41.4 µM
[42]
  GI50: 13.7 µM
  TGI: 38.4 µM
[43]
  GI50: 17.5 µM
  TGI: 32.6 µM
[44]
  GI50: 35.6 µM
  TGI: > 100 µM
[45]
  GI50: 29.2 µM
  TGI: > 100 µM
[46]
  GI50: 36.1 µM
  TGI: > 100 µM
[47]
  GI50: 17.2 µM
  TGI: 33.1 µM
[48]
  GI50: 22.9 µM
  TGI: 54.8 µM
[49]
  GI50: 15.9 µM
  TGI: 32.9 µM
[50]
  GI50: 32.1 µM
  TGI: > 100 µM
[51]
  GI50: 17.2 µM
  TGI: 53.5 µM
[52]
  GI50: 26.6 µM
  TGI: 73.7 µM
[53]
  GI50: 23.9 µM
  TGI: > 100 µM
